US11958846B2, “Urea compounds and compositions as SMARCA2/BRM ATPase inhibitors” (Novartis AG, priority 2018, dated 2024)

What was measured:
[1] = target: Brm ATPase-SnAC (636-1331) (Homo sapiens, UniProt P51531); experiment: BRM ATPase Inhibition Assay (ADP-Glo); type: biochemical; conditions: 5 nM BRM ATPase-SnAC, 85 μM ATP, 2 nM pCMV-dR8.91 plasmid, 60 min RT
Protocol: BRM ATPase Inhibition Assay
(§1) Compound inhibition of ATPase activity of Brm ATPase-SnAC (636-1331) was measured by using the ADP-Glo assay kit from Promega (V6930). 120 nL of compound in 100% DMSO were transferred to a white 384 well microtiter assay plate using an ATS Acoustic Transfer System from EDC Biosystems. All subsequent reagent additions were performed using a MultiFlo FX Multi-Mode Dispenser. Assay buffer was 20 mM HEPES pH 7.5, 1 mM MgCl2, 20 mM KCl, 1 mM DTT, 0.01% BSA, 0.005% Tween 20. 4 μL of 7.5 nM Brm ATPase-SnAC in assay buffer was added to the assay plate and incubated at RT for 5 min with compound. 2 μL of 255 μM ATP and 6 nM pCMV-dR8.91 plasmid in assay buffer was added to assay plate to initiate the reaction. The final concentrations of reagents were 5 nM BRM ATPase-SnAC, 85 μM ATP, and 2 nM pCMV-dR8.91 plasmid. The ATPase reaction was incubated at RT for 60 min. 3 μL of ADP-Glo reagent was added to stop the reaction and was incubated for 30 min at RT. 3 μL of Kinase detection reagent was added to the assay plate which was incubated for 90 min at RT. Plates were read with a 2103 Multilabel Envision reader using ultrasensitive luminescence detection. IC50 values were determined from the average of duplicate data points by non-linear regression analysis of percent inhibition values plotted versus compound concentration.
(§2) pCMV-dR8.91 Plasmid Used for BRM/BRG1 ATPase Inhibition Assays:
(§3) The plasmid template pCMV-dR8.91 (see sequence below) is propagated using One Shot Stbl3 Chemically Competent E. coli (Catalog Number C73C7303, Invitrogen/Thermo Fisher Scientific) following the transformation protocol provided with the reagent. Transformed bacterial colonies are then selected on LB agar plates containing ampicillin/carbenicllin antibiotic selection medium (Catalog Number L1010, Teknova). Bacterial colonies are grown in LB liquid broth (Catalog number 10855001, Invitrogen) containing ampicillin at 100 micrograms/mL and plasmid DNA isolated according to required scale according to the manufacturers protocol provided with the Qiagen Plasmid Isolation Kits (Maxi prep, Product Id Number 10063).

[2] = target: Brg1 ATPase-SnAC (658-1361) (Homo sapiens (Human), UniProt P51532); experiment: BRG1 ATPase Inhibition Assay (ADP-Glo); type: biochemical; conditions: 5 nM Brg1 ATPase-SnAC, 65 μM ATP, 2 nM pCMV-dR8.91 plasmid, 60 min RT
Chain of Brg1 ATPase-SnAC (658-1361) (P51532 other isoform, or with tags, fused parts or gaps): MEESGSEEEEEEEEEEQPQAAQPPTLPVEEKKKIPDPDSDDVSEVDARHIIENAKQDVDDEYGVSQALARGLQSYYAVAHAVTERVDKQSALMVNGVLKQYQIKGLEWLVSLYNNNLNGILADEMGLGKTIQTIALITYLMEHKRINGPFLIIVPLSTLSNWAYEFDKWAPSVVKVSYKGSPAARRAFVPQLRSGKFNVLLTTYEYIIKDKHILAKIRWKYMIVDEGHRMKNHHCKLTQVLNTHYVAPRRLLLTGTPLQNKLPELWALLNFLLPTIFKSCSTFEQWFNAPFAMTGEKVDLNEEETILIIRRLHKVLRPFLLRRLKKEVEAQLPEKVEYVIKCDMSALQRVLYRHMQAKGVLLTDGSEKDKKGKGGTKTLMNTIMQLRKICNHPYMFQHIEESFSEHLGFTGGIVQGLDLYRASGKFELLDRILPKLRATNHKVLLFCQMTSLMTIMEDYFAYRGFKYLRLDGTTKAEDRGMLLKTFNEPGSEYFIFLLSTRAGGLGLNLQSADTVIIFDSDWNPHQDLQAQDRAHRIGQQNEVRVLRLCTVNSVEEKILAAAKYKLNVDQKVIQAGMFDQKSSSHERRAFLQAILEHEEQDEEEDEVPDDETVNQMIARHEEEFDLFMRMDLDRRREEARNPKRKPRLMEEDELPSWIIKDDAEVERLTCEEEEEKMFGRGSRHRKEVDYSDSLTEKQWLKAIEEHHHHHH
Protocol: BRG1 ATPase Inhibition Assay
BRG1 ATPase Inhibition Activity
as §1, with “Brg1” for “Brm”, “(658-1361)” for “(636-1331)”, “195” for “255”, “Brg1” for “BRM”, “65” for “85”
as §2, §3

Chain of Brm ATPase-SnAC (636-1331) (P51531 whole entry, looked up): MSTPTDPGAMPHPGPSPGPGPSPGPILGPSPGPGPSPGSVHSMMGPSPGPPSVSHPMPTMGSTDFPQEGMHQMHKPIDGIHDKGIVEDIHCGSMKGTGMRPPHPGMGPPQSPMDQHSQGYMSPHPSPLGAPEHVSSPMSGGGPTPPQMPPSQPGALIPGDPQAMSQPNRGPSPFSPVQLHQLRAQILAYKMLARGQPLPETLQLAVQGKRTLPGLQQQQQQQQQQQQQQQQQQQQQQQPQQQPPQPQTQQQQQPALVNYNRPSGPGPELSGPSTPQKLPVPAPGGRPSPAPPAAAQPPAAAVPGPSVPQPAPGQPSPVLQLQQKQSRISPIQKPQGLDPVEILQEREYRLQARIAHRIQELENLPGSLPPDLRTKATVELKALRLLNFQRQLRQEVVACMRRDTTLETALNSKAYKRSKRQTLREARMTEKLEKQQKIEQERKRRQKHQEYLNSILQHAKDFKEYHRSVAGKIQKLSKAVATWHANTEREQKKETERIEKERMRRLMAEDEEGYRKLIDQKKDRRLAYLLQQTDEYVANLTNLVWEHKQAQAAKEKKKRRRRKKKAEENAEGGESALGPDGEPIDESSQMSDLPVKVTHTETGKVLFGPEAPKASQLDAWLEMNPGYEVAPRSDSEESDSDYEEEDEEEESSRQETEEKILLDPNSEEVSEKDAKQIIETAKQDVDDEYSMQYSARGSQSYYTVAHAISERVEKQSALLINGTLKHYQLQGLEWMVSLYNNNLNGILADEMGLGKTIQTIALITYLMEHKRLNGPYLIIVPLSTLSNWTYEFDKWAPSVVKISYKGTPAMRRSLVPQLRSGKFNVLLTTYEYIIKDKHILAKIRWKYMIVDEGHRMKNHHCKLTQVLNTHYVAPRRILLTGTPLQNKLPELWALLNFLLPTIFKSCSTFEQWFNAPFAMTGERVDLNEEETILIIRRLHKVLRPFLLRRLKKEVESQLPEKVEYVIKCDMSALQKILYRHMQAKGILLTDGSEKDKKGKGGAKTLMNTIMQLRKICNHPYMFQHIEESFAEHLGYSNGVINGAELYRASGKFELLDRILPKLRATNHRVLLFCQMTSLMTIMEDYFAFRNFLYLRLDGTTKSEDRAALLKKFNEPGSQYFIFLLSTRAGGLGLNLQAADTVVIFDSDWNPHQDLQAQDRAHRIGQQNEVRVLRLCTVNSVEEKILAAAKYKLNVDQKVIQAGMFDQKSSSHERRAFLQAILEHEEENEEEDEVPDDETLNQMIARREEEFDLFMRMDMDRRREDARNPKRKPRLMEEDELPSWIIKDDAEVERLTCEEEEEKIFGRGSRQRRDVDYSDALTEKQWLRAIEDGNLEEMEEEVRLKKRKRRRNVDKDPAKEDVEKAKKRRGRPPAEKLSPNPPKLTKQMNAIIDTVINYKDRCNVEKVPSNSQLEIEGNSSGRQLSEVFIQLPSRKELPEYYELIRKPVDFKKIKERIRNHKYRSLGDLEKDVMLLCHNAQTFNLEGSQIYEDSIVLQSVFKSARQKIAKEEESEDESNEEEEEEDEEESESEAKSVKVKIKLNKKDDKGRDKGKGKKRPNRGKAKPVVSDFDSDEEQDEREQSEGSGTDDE

| Structure (SMILES) | IC50 [1] [nM] | IC50 [2] [nM] |
| --- | --- | --- |
| O=C(Nc1ccnc(Cl)c1)Nc1cc(C(F)F)ns1 [Example 1, 1-(2-chloropyridin-4-yl)-3-(3-(difluoromethyl)isothiazol-5-yl)urea] | 5 | 6 |
| Cc1cc(NC(=O)Nc2ccnc(Cl)c2)sn1 [Example 2, 1-(2-chloropyridin-4-yl)-3-(3-methylisothiazol-5-yl)urea] | 33 | 30 |
| Nc1cnc(Cl)cc1NC(=O)Nc1cc(C(F)F)ns1 [Example 4, 1-(5-amino-2-chloropyridin-4-yl)-3-(3-(difluoromethyl)isothiazol-5-yl)urea] | < 5 | < 5 |
| Nc1cnc(F)cc1NC(=O)Nc1cc(C(F)F)ns1 [Example 6, 1-(5-amino-2-fluoropyridin-4-yl)-3-(3-(difluoromethyl)isothiazol-5-yl)urea] | < 5 | < 5 |

Second part, the compound after the results:

| IC50 [1] [nM] | IC50 [2] [nM] | Structure (SMILES) |
| --- | --- | --- |
| < 5 | < 5 | O=C(Nc1cc(C(F)F)ns1)Nc1cc(Cl)ncc1CO [Example 5, 1-(2-chloro-5-(hydroxymethyl)pyridin-4-yl)-3-(3-(difluoromethyl)isothiazol-5-yl)urea] |
| < 5 | < 5 | O=C(Nc1cc(C(F)F)ns1)Nc1cc(F)ncc1CO [Example 7, 1-(3-(difluoromethyl)isothiazol-5-yl)-3-(2-fluoro-5-(hydroxymethyl)pyridin-4-yl)urea] |
| 90 | 19 | O=C(Nc1cc(C(F)F)ns1)Nc1ccnc(F)c1CO [Example 8, 1-(3-(difluoromethyl)isothiazol-5-yl)-3-(2-fluoro-3-(hydroxymethyl)pyridin-4-yl)urea] |
